Measurements as given in article PMC7933320, “Cytochalasins from Xylaria sp. CFL5, an Endophytic Fungus of Cephalotaxus fortunei” (Natural Products and Bioprospecting, 2020).

Key:
LAG3/MHC II = target: T1, LAG3/MHC II (Homo sapiens, UniProt P18627); assay: LAG3/MHC II binding assay (HTRF, Cisbio kit); settings: for inhibition at 50 µM: read-out: inhibition rate against LAG3/MHC II
T1 sequence (P18627 23-450 limits assumed): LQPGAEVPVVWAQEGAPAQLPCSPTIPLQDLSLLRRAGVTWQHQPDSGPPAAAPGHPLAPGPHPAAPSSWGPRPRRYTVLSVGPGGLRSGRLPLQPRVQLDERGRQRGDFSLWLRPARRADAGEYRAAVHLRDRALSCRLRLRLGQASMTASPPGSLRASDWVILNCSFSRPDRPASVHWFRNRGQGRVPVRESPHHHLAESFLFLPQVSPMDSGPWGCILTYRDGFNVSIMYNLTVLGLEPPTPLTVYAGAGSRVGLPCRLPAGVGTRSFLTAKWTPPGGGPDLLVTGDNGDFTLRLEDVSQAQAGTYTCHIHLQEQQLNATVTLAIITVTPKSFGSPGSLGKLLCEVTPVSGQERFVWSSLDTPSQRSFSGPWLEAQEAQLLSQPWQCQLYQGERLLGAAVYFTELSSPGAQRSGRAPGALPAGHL
Description: Utilizing HTRF (Homogeneous Time-resolved Fluorescence) technology [34, 35], the inhibition activity of tested compounds interfering in the interaction between MHC II and LAG3 proteins was evaluated. The activity was measured using LAG3/MHC II binding assay kit commercially available from Cisbio. […] 2 μL tested solutions, 4 μL Tag1-LAG3 protein, and 4 μL Tag2-MHC II protein were added in sterile 96-well dishes. After incubation for 15 min in room temperature, 5 μL anti-Tag1-Tb^3+ and 5 μL anti-Tag2-XL665 (or 10 μL of pre-mixed anti-tag detection reagents) were added into each well. The concentration of DMSO in each well was kept below 0.5% and the final volume in each well was 20 μL in the moment. Then the 96-well dishes were kept incubating for 1 h to overnight at room temperature. Subsequently, remove the plate sealer and read specific emission signal at 665 nm on an HTRF compatible reader. […] The negative control consisted of 4 μL Tag2-MHC II protein, 5 μL anti-Tag1-Tb^3+ and 5 μL anti-Tag2-XL665, as well as 6 μL diluent. In blank control, 5 μL anti-Tag1-Tb^3+, 10 μL diluent, and 5 μL detection buffer were existed.
(§1) Using the following fluorescence intensity (F) measurements at 665 nm, such as the signals of positive control (Fp), blank control (Fb), and experimental groups (Fe), the inhibition rate was calculated at each of the compound concentration levels. The inhibitory activity of compound against the interaction of LAG3 with MHC II was evaluated based on the formula as follow: Inhibition rate = (Fp − Fe)/(Fp − Fb) × 100%. IC50 values were calculated by linear regression of a dose-dependent inhibition rate curve.

LAG3/FGL1 = target: T2, LAG3/FGL1 (Homo sapiens, UniProt P18627); assay: LAG3/FGL1 binding assay (HTRF, Cisbio kit); settings: for inhibition at 50 µM: read-out: inhibition rate against LAG3/FGL1
T2 sequence (P18627 23-450 limits assumed): T1 sequence (P18627 23-450 limits assumed)
Description: as §1
The tested principles and methods were similar to those of LAG3/MHC II. Using LAG3/FGL1 binding assay kit from Cisbio, the inhibition activity of tested compounds on the binding between LAG3 and MHC II was evaluated. […] Moreover, the compositions of tested groups, positive control, negative control, blank control were analogical with those of LAG3/MHC II kit. The experimental operations and statistical analysis were also identical with above-mentioned LAG3/MHC II kit.

[1] = Cytotoxicity by the CCK8 assay; format: cell-based; settings: human, AGS cells, read-out: inhibition rate, cytotoxicity against AGS cells
Description: With adriamycin as the positive control, compounds 1, 4–9 were assessed for cytotoxicity against AGS, U251, and MDA-MB-231 by the CCK8 assay (Tables 3 and 4).

| SMILES | IC50 (LAG3/MHC II) | inhibition at 50 µM (LAG3/MHC II) | IC50 (LAG3/FGL1) | inhibition at 50 µM (LAG3/FGL1) | inhibition at 5 µM [1] |
| --- | --- | --- | --- | --- | --- |
| CC(=O)OC1C=CC(C)C(=O)C(C)CC=CC2C=C(C)C(C)C3C(Cc4ccccc4)NC(=O)C213 (stereo not shown) [Compound 1, xylariasin A] | 4.74 µM | 82.4% | 11.8 µM | 83.9% |  |
| CC(=O)OC1C=CC(C)(O)C(=O)C(C)CC=CC2C=C(C)C(C)C3C(Cc4ccccc4)NC(=O)C213 (stereo not shown) [Compound 4, zygosporin G] |  | 55.7% |  | 24.9% |  |
| CC(=O)OC1C=CC(C)(O)C(=O)C(C)CC=CC2C=C(CO)C(C)C3C(Cc4ccccc4)NC(=O)C213 (stereo not shown) [Compound 5, 12-hydroxyl zygosporin G] | 3.18 µM | 85.3% |  | 79.1% |  |
| C=C1[C@@H](C)[C@H]2[C@H](Cc3ccccc3)NC(=O)[C@]23[C@H](OC(C)=O)/C=C/[C@@](C)(O)C(=O)[C@@H](C)C/C=C/[C@H]3[C@@H]1O [Compound 6, cytochalasin D] |  |  |  | 2.66% | 94% |
| C=C1C(C)C2C(Cc3ccccc3)NC(=O)C23C(OC(C)=O)C=CC(C)C(=O)C(C)CC=CC3C1O (stereo not shown) [Compound 7, zygosporin E] | 2.37 µM | 82.7% | 4.39 µM | 92.7% |  |
| CC(=O)OC1C=CC(C)(O)C(=O)C(C)CC=CC2C(=O)C(C)C(C)C3C(Cc4ccccc4)NC(=O)C123 (stereo not shown) [Compound 8] | 2.58 µM | 78.9% | 7.45 µM | 92.5% |  |
| CC(=O)OC1C=CC(C)(O)C(=O)C(C)CC=CC2C(O)C(C)=C(C)C3C(Cc4ccccc4)NC(=O)C123 (stereo not shown) [Compound 9, cytochalasin C] |  | 77.4% |  | 58.4% | 64% |
